Experiments:
[1] = Control hydrolysis in phosphate buffered saline (PBS, pH 7.4); format: physicochemical; details: PBS (pH7)
Method: (§1) Pooled mixed gender human plasma (2 ml), mouse plasma, rat plasma and dog plasma were equilibrated at 37° C. The compound of example 9 was added so as to achieve a concentration of 1.0 ug/mL. Aliquots (50 uL) of the mixture were withdrawn at timed intervals (0, 0.004, 0.5, 1, 2 and 4 hours) and quenched with 200 μL of methanol/acetonitrile (1:1). The samples were vortexed and stored at −80° C. until analysis. Assays were done in triplicate. Control samples were done in phosphate buffered saline (PBS, pH 7.4) and simulated gastric fluid (SGF, pH 2). Analysis of samples as performed by HPLC-MS to determine the amounts of prodrug and drug in each sample tested. Table 1 provides the mean concentrations of prodrug remaining at different time points of the experiment.

[2] = Prodrug hydrolysis in mouse plasma at 37° C; format: in vitro ADME; details: 1.0 ug/mL
Method: as §1

Solubility in water = format: physicochemical; details: thermodynamic from solid; HCl salt solid dissolved in water
Method: The structure was confirmed by NMR. Purity was determined by HPLC (>97%). The solid was resuspended in 1M HCl-dioxane to form the HCl salt which was filtered, washed with ether and dried. Yield (>95%, purity >95%; DSC endotherm 174C). The solid could be dissolved in water up to 50 mg/ml and lyophilized to form a white “cake”.

[3] = Use in treatment of a human patient suffering depression; format: in vivo; details: i.m. or s.c. injection ca. 25 mg or oral ca. 50-200 mg
Method: The compound of example 6 (N,N diisopropyltryptamine-4-glutarate) is administered by i.m. or s.c. injection (ca. 25 mg; 0.4-0.5 mg/kg) to a human patient suffering depression, or by oral administration (ca. 50-200 mg; 0.8-3.2 mg/kg) with tablets. In another example of use, the compound of example 6 (4-hemiglutarate of 4-OH-DiPT) is similarly administered. Prior to the dosing session, the patient is qualified for the experience by measurement of depression scores, screened for exclusions (e.g. history of psychoses, unfavorable heart condition, pregnancy) and finally, the patient is encouraged to formulate an intent for the dosing session. Dosing is performed in a quiet clinic setting with the patient resting comfortably in an inclined, but unrestrained, position to avoid falls. The patients' eyes are covered, and music is applied. The drug is administered. After 4 h, the patient reports no longer feeling the effects of the drug and is asked to sit up while under supervision. Feeling normal, the patient is allowed to stand (supervised) and feeling in control, is allowed to move around. One hour later, the patient is discharged. Later by 24 h, the patient returns to the clinic to meet with a psychotherapist to recount the session. The patient records a depression score via questionnaire and is again discharged. […]

[4] = Control hydrolysis in simulated gastric fluid (SGF, pH 2); format: physicochemical; details: SGF (pH2)
Method: as §1

[5] = Subjective effects in human volunteers (standardized questionnaires); format: in vivo
Method: The compound from example 6 (N,N diisopropyltryptamine-4-glutarate) is administered to human volunteers by subcutaneous injection of a sterile solution (1 mg/ml) at a dosage of 0.1-0.6 mg/kg. Blood samples are taken at 5, 15, 30, 45, 60, 120, 240 and 480 min and 24 h. Samples are analyzed by LCMS for drug and prodrug. Subjective effects are measured using standardized questionnaires.
The compound from example 2 (4-hemisuccinate of 4-OH-DiPT) is administered to human volunteers by oral ingestion of a tablet containing 50 mg of the prodrug. Blood samples are taken at 5, 15, 30, 45, 60, 120, 240 and 480 min and 24 h. Samples are analyzed by LCMS for drug and prodrug. Subjective effects are measured using standardized questionnaires.

[6] = Prodrug hydrolysis in pooled mixed gender human plasma at 37° C; format: in vitro ADME; details: 1.0 ug/mL
Method: as §1

[7] = Prodrug hydrolysis in dog plasma at 37° C; format: in vitro ADME; details: 1.0 ug/mL
Method: as §1

[8] = Prodrug hydrolysis in rat plasma at 37° C; format: in vitro ADME; details: 1.0 ug/mL
Method: as §1

[9] = Head Twitch Response (HTR) or Wet Dog Shakes (WDS) by visual observation; format: in vivo; details: rats; highest intensity of head twitch at the Tmax of the PK profile
Method: In some cases, Head Twitch Response (HTR) or Wet Dog Shakes (WDS) were recorded by visual observation and counting of the relevant muscle twitches.

[10] = Pharmacokinetics in rats (intravenous and subcutaneous injection); format: in vivo; details: i.v. and s.c., 1.4-2 mg/kg, LCMS, rapidly converted to the active form
Method: The compound from example 9 was administered to rats by injection (intravenous and subcutaneous) with a sterile solution (2 mg/ml) at a rate of 1.4-2 mg/kg. Blood samples were taken at 15, 30, 45, 60, 120, 240 min and 360 min and analyzed by LCMS for drug and prodrug. PK profile for the prodrug and active species were obtained and relative bioavailability was determined for each of the routes of administration.
Pharmacokinetics of 1.34 mg/ml 4-HO-DiPT HCl administered by intravenous or subcutaneous injection were performed in parallel under identical conditions as above. […] Immediately obvious is the increased variability with the active species when administered s.c. and intravenous administrations.

CC(C)N(CCc1c[nH]c2cccc(OC(=O)CCCC(=O)O)c12)C(C)C [Example 6, N,N diisopropyltryptamine-4-glutarate]
Percentage of remaining prodrug ([1]; 0 h): 100% | Percentage of remaining prodrug ([1]; 4 h): 93% | Percentage of remaining prodrug ([2]; 0 h): 100% | Percentage of remaining prodrug ([2]; 0.004 h): 0% | Percentage of remaining prodrug ([2]; 0.5 h): 0% | Percentage of remaining prodrug ([2]; 1 h): 0% | Percentage of remaining prodrug ([2]; 2 h): 0% | Percentage of remaining prodrug ([2]; 4 h): 0% | solubility (Solubility in water): ≤ 50 mg/mL | Time after which the patient reports no longer feeling the effects of the drug [3]: 4 h | Percentage of remaining prodrug ([4]; 0 h): 100% | Percentage of remaining prodrug ([4]; 0.004 h): 100% | Percentage of remaining prodrug ([4]; 0.5 h): 100% | Percentage of remaining prodrug ([4]; 1 h): 100% | Percentage of remaining prodrug ([4]; 4 h): 101% | Subjective effects: intensity of psychoactivity ([5]; subcutaneous injection, 0.1-0.6 mg/kg): correlates with blood levels | Percentage of remaining prodrug ([6]; 0 h): 100% | Percentage of remaining prodrug ([6]; 0.004 h): 100% | Percentage of remaining prodrug ([6]; 0.5 h): 3.0% | Percentage of remaining prodrug ([6]; 1 h): 0.23% | Percentage of remaining prodrug ([6]; 2 h): 0% | Percentage of remaining prodrug ([6]; 4 h): 0% | Percentage of remaining prodrug ([7]; 0 h): 100% | Percentage of remaining prodrug ([7]; 0.004 h): 100% | Percentage of remaining prodrug ([7]; 0.5 h): 87% | Percentage of remaining prodrug ([7]; 1 h): 79% | Percentage of remaining prodrug ([7]; 2 h): 64% | Percentage of remaining prodrug ([7]; 4 h): 39% | Percentage of remaining prodrug ([8]; 0 h): 100% | Percentage of remaining prodrug ([8]; 0.004 h): 0% | Percentage of remaining prodrug ([8]; 0.5 h): 0% | Percentage of remaining prodrug ([8]; 1 h): 0% | Percentage of remaining prodrug ([8]; 2 h): 0% | Percentage of remaining prodrug ([8]; 4 h): 0%

CC(C)N(CCc1c[nH]c2cccc(OC(=O)CCC(=O)O)c12)C(C)C [Example 2, N,N diisopropyltryptamine-4-succinate]
Subjective effects: intensity of psychoactivity ([5]; oral tablet 50 mg): correlates with blood levels

CC(C)N(CCc1c[nH]c2cccc(O)c12)C(C)C [Example 4-HO-DIPT, 4-hydroxy-N,N-diisopropyltryptamine]
Intensity of the HTR versus plasma concentration of 4-HO-DIPT [9]: proportional to the plasma concentration

CC(C)N(CCc1c[nH]c2cccc(OC(=O)CCCC(=O)O)c12)C(C)C.Cl [Example 9, HCl salt of N,N diisopropyltryptamine-4-glutarate]
Prodrug in blood samples after injection [10]: not observed

— US20250051278A1, “[…]” (Reunion Neuroscience, Inc., priority 2021, published 2025)
